The text below walks through data of ChEMBL document CHEMBL5291721, “A preclinical secondary pharmacology resource illuminates target-adverse drug reaction associations of marketed drugs” (Nat Commun, 2023).

Experiment [1] deals with Beta-2 adrenergic receptor (Homo sapiens, UniProt P07550). It is filed as functional, cell-based.
The target in a further experiment is Cannabinoid receptor 1 (Homo sapiens, UniProt P21554). In kind it is functional, cell-based.
In the next experiment the target is D(1A) dopamine receptor (Homo sapiens, UniProt P21728). It is filed as functional, cell-based.
D(1A) dopamine receptor, sequence (P21728 whole entry): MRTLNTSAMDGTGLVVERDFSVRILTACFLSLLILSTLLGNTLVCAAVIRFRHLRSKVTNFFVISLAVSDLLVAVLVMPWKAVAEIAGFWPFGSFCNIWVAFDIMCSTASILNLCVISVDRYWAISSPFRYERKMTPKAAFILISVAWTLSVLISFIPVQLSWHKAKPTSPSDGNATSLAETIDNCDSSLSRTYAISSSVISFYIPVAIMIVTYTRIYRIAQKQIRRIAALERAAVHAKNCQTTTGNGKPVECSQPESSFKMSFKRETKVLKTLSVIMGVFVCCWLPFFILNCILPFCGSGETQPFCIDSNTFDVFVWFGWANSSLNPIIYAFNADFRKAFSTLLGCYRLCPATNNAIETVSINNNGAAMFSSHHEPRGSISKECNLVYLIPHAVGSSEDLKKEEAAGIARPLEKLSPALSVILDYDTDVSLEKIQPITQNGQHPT
Experiment [2] addresses T1, Estrogen receptor (Homo sapiens, UniProt P03372).
T1 sequence (P03372 whole entry): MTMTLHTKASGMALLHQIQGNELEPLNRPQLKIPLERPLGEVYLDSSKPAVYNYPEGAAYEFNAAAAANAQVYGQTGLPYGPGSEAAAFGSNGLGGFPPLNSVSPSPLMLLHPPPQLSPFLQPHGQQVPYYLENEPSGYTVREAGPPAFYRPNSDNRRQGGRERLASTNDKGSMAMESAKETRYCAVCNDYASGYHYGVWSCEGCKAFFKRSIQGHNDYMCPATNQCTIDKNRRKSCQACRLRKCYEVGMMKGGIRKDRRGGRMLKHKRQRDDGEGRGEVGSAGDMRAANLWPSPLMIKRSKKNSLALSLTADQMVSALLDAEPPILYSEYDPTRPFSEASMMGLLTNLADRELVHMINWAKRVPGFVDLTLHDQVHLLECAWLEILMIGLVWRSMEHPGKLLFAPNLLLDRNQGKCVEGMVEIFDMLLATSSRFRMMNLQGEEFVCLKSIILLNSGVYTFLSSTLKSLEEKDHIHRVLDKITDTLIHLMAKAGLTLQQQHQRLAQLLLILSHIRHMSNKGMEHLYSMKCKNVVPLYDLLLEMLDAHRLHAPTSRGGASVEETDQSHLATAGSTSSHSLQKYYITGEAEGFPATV

Experiment [3] deals with Gamma-aminobutyric acid receptor subunit alpha-1 (Rattus norvegicus, UniProt P62813).
Gamma-aminobutyric acid receptor subunit alpha-1, sequence (P62813 whole entry): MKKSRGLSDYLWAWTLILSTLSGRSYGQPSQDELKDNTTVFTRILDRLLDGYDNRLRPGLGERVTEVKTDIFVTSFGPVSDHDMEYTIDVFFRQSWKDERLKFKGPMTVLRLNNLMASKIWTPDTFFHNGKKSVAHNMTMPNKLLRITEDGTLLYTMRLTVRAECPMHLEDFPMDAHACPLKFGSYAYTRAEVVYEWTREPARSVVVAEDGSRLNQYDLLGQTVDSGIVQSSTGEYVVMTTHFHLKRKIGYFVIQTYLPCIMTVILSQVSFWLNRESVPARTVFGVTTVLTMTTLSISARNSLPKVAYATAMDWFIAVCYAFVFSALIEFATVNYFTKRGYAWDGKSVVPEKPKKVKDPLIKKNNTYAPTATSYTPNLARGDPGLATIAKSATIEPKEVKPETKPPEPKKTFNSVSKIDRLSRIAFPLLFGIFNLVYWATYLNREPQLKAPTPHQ
For another experiment, the target named is Histamine H1 receptor (Homo sapiens, UniProt P35367).
Histamine H1 receptor, sequence (P35367 whole entry): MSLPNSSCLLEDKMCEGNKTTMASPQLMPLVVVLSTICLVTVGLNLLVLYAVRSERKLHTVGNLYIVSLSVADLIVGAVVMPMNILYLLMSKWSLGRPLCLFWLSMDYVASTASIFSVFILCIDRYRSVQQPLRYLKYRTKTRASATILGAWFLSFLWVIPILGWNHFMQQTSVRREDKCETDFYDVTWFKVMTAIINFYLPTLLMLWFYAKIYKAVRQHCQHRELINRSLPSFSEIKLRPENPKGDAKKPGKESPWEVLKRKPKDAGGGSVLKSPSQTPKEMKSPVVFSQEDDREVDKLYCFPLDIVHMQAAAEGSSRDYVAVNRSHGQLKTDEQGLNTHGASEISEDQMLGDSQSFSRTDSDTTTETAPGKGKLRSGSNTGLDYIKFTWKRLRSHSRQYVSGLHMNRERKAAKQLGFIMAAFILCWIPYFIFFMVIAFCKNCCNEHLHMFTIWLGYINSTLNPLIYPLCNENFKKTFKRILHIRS
Experiment [4] deals with 5-hydroxytryptamine receptor 2B (Homo sapiens, UniProt P41595). In kind it is functional, cell-based.
5-hydroxytryptamine receptor 2B, sequence (P41595 whole entry): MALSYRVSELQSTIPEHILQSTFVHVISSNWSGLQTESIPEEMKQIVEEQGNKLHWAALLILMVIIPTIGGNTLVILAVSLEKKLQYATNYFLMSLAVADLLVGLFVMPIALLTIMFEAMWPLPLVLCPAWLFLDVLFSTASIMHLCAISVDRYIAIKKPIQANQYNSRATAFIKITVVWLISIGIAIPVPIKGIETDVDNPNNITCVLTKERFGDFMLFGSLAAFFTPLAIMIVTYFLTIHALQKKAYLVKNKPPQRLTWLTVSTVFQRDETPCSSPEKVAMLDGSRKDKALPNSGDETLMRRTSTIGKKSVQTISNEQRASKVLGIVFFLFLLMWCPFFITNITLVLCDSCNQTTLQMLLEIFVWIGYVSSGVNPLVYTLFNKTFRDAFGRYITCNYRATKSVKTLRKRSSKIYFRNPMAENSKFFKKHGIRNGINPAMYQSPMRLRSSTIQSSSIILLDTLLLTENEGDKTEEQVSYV
Experiment [5] addresses Kappa-type opioid receptor (Homo sapiens, UniProt P41145).
In the next experiment the target is T2, Progesterone receptor (Homo sapiens, UniProt P06401).
T2 sequence (P06401 whole entry): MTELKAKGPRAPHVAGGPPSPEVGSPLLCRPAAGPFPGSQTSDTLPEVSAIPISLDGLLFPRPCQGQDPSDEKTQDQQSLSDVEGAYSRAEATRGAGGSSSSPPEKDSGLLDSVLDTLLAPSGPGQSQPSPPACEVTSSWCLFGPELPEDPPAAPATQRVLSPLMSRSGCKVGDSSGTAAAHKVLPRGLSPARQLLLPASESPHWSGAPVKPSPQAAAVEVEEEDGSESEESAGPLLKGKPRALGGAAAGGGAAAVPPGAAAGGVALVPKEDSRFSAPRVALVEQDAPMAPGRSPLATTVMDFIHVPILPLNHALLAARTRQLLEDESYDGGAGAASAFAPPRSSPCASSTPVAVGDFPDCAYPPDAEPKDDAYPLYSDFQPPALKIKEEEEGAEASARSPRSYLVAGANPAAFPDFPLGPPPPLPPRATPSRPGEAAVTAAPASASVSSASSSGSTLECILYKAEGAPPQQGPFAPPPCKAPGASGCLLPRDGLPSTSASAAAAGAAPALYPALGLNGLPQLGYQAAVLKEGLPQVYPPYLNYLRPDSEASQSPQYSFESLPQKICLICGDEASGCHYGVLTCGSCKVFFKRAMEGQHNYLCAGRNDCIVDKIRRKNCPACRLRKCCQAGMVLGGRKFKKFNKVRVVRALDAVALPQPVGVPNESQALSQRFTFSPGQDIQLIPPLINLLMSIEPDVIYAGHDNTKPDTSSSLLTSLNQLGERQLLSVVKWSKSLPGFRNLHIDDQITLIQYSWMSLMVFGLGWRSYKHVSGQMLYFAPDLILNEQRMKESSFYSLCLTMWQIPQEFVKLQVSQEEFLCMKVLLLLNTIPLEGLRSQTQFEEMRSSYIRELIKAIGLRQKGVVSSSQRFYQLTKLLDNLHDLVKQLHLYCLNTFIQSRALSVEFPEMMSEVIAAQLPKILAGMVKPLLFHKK
It is filed as functional.

Experiment [6] deals with T3, Alpha-1A adrenergic receptor (Homo sapiens, UniProt P35348).
T3 sequence (P35348 whole entry): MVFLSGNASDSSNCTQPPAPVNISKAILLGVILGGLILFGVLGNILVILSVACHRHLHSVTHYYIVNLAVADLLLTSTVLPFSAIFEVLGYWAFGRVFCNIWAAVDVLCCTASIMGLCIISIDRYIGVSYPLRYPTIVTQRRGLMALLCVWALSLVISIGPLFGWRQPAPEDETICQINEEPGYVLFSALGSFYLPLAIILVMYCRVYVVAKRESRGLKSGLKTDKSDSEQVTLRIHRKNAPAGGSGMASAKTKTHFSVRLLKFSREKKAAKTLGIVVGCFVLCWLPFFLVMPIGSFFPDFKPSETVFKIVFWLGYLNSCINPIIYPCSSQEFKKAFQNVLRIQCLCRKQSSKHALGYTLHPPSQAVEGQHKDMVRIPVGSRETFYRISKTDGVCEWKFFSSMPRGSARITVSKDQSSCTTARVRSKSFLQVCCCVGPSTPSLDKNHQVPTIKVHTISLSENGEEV

The target in experiment [7] is T4, Mu-type opioid receptor (Homo sapiens, UniProt P35372).
T4 sequence (P35372 whole entry): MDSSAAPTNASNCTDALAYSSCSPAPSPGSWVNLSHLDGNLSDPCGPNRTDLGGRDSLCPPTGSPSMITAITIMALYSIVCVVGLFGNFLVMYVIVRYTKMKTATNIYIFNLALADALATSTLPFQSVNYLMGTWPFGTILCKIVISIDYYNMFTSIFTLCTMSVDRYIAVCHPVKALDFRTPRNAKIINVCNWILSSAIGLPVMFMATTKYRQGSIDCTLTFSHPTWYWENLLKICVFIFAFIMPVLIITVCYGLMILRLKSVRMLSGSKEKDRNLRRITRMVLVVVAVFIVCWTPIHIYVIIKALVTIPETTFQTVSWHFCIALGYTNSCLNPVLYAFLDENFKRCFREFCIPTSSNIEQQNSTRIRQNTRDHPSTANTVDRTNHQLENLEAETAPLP
The target of experiment [8] is T1, Estrogen receptor. The source holds these as a separate data set.
Experiment [9] concerns the target T4, Mu-type opioid receptor. The source holds these as a separate data set.
For experiment [10], the target named is cGMP-inhibited 3',5'-cyclic phosphodiesterase 3A (Homo sapiens, UniProt Q14432). It is filed as functional.
cGMP-inhibited 3',5'-cyclic phosphodiesterase 3A, sequence (Q14432 whole entry): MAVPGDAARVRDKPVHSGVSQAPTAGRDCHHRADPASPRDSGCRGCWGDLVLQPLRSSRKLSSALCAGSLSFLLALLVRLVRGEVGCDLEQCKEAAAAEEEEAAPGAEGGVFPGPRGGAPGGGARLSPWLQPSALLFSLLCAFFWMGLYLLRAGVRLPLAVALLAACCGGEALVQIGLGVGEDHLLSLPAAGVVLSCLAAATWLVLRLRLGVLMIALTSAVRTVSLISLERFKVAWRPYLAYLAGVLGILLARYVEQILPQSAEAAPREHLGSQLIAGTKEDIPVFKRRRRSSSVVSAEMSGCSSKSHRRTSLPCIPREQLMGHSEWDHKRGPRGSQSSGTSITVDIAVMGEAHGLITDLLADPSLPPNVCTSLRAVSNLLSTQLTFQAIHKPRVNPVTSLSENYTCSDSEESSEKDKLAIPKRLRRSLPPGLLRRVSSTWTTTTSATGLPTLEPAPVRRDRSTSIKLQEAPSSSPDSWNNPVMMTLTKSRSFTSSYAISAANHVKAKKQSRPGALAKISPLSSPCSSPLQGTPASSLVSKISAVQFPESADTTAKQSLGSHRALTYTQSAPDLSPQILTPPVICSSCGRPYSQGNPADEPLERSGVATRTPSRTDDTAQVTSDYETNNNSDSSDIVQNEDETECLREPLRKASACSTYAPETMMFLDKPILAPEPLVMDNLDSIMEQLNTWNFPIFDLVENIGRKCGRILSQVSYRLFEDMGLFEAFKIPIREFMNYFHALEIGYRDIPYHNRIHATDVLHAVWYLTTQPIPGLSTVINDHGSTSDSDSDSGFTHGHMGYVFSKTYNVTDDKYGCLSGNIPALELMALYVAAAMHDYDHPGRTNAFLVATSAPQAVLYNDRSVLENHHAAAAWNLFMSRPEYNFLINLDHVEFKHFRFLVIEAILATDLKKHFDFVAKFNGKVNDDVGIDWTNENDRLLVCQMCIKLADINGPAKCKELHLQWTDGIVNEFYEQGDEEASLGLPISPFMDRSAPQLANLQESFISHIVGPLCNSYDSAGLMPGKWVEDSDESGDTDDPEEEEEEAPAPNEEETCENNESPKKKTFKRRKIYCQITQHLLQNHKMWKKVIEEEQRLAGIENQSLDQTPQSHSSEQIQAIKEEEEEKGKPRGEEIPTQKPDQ
In the next experiment the target is T5, Thromboxane A2 receptor (Homo sapiens, UniProt P21731).
T5 sequence (P21731 whole entry): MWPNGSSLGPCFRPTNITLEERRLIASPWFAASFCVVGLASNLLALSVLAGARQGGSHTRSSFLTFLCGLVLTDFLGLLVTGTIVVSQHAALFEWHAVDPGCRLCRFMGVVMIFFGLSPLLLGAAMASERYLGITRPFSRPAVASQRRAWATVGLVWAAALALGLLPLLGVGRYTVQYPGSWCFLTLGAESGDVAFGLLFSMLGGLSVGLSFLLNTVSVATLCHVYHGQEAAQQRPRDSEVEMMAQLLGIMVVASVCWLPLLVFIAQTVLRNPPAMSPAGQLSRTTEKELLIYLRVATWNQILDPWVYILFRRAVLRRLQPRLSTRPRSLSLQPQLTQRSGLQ
It is filed as functional, cell-based.
Further: assay procedure not described here.

Beta-2 adrenergic receptor, sequence (P07550 whole entry): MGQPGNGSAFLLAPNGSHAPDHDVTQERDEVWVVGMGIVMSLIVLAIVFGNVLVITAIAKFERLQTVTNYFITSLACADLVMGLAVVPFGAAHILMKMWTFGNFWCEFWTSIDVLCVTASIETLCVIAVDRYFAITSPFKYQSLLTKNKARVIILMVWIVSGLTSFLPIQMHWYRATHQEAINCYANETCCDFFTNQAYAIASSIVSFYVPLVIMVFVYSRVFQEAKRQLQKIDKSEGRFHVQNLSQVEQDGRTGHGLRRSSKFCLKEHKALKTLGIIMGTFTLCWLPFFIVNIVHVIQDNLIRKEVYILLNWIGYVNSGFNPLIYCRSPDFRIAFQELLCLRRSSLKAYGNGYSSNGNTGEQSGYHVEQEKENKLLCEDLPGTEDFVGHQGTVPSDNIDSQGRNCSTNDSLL
Cannabinoid receptor 1, sequence (P21554 whole entry): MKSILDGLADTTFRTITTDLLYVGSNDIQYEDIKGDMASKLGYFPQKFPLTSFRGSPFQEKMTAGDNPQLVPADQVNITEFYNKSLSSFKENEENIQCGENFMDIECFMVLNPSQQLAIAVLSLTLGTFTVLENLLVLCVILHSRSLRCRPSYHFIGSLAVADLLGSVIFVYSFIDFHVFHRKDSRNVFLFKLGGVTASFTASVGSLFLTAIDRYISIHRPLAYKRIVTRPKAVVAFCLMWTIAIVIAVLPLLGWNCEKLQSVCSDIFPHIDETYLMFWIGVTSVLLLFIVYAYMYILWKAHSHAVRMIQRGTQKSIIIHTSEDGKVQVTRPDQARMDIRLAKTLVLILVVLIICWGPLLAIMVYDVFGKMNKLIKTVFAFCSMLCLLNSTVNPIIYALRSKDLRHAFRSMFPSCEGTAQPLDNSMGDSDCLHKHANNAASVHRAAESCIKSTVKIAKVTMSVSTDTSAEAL
Kappa-type opioid receptor, sequence (P41145 whole entry): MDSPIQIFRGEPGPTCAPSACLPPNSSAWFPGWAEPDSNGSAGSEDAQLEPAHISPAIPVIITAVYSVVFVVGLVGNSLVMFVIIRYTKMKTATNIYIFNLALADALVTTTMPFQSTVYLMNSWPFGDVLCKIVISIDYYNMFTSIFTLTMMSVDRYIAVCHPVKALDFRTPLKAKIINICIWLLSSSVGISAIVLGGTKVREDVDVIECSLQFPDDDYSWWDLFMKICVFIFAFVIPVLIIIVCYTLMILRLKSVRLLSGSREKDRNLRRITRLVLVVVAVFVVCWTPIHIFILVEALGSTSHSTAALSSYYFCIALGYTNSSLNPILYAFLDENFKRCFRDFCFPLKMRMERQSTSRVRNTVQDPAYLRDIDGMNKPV

Usually AC50 stands for the midpoint of the concentration-response curve, whichever way the signal moves. Lower therefore signals activity at low concentration. In the case of `CC(=O)N[C@@H](CS)C(=O)O` [ACETYLCYSTEINE], the concentration at half-maximal activity (AC50) (in [1]; at Cannabinoid receptor 1; on D(1A) dopamine receptor; on Estrogen receptor [2]; in [3]; on Histamine H1 receptor) was more than 30 µM each time. For the same molecule, the half-maximal activity concentration (AC50) (in [4]; in [5]; at Progesterone receptor) was more than 30 µM in each case.

For `C/N=C(\NC)NCc1ccccc1` [BETHANIDINE], the AC50 (in [1]; on Cannabinoid receptor 1; on D(1A) dopamine receptor; on Estrogen receptor [2]; on Histamine H1 receptor; in experiment [4]) was more than 30 µM each time. For the same molecule, the AC50 (in experiment [5]; on Progesterone receptor) was more than 30 µM in each case.

Consider `CCC(C)C1(CC)C(=O)NC(=O)NC1=O` (stereo not drawn) [BUTABARBITAL], for which the concentration at half-maximal activity (AC50) (in experiment [1]; at Cannabinoid receptor 1; at D(1A) dopamine receptor; on Estrogen receptor [2]; at Histamine H1 receptor; in experiment [4]) was more than 30 µM in each case. Further, at Progesterone receptor, the AC50 is more than 30 µM.

`CNC1=Nc2ccc(Cl)cc2C(c2ccccc2)=[N+]([O-])C1` [CHLORDIAZEPOXIDE]: the AC50 is more than 10 µM in experiment [6]; more than 30 µM in [1]; more than 30 µM on D(1A) dopamine receptor; more than 30 µM at Estrogen receptor [2]; more than 10 µM in experiment [3]; more than 10 µM in experiment [4]. For the same molecule, on Mu-type opioid receptor [7], the half-maximal activity concentration (AC50) was more than 10 µM.

With `CCOC(=O)c1cncn1[C@H](C)c1ccccc1` [ETOMIDATE], the AC50 in experiment [6] is more than 10 µM; in experiment [1] it was more than 30 µM; at D(1A) dopamine receptor, more than 10 µM; at Estrogen receptor [2], more than 10 µM; at Histamine H1 receptor it was more than 10 µM; in experiment [4], more than 10 µM. For the same molecule, the figures for the AC50 (in experiment [5]; at Progesterone receptor; on Mu-type opioid receptor [7]) were more than 10 µM, more than 10 µM and more than 30 µM, respectively.

`C[C@]12CC[C@@H]3c4ccc(O)cc4C[C@@H](CCCCCCCCC[S+]([O-])CCCC(F)(F)C(F)(F)F)[C@H]3[C@@H]1CC[C@@H]2O` (stereo partly drawn) [FULVESTRANT]: the AC50 (in [1]; at Cannabinoid receptor 1; at D(1A) dopamine receptor; in experiment [3]; on Histamine H1 receptor; in [4]) was more than 30 µM throughout. In addition, the half-maximal activity concentration (AC50) (in experiment [5]; at Progesterone receptor) was more than 30 µM each time.

With `Oc1ccc2c(c1)CC[C@H](c1ccccc1)[C@@H]2c1ccc(OCCN2CCCC2)cc1` [LASOFOXIFENE], the half-maximal activity concentration (AC50) in [1] is more than 30 µM; at Cannabinoid receptor 1, more than 30 µM; on D(1A) dopamine receptor, more than 30 µM; in experiment [3], more than 30 µM; at Histamine H1 receptor, 20 µM; in experiment [4], 9.49 µM. Besides, the AC50 in experiment [5] is 0.0849 µM; at Progesterone receptor, more than 30 µM.

`CN1CCN(C2=Nc3ccccc3Oc3ccc(Cl)cc32)CC1` [LOXAPINE]: the concentration at half-maximal activity (AC50) in experiment [1] was more than 30 µM; at Cannabinoid receptor 1 it was more than 30 µM; on D(1A) dopamine receptor, more than 10 µM; at Estrogen receptor [2], more than 30 µM; on Estrogen receptor [8], more than 30 µM; in [3], more than 10 µM. The AC50 in [5] is 8.24 µM; at Mu-type opioid receptor [9], 8.61 µM; in experiment [10], more than 30 µM; on Thromboxane A2 receptor it was 18.5 µM; on Mu-type opioid receptor [7], 13 µM.

For the molecule `CC(C(=O)O)c1ccc(CC2CCCC2=O)cc1` (stereo not drawn) [LOXOPROFEN], the AC50 (in experiment [1]; on Cannabinoid receptor 1; at D(1A) dopamine receptor; at Estrogen receptor [2]; in experiment [3]; in experiment [4]) was more than 30 µM in each case. Moreover, the results for the AC50 (in experiment [5]; at Progesterone receptor) were 0.66 µM and more than 30 µM, respectively.

Take `CN(C)CCCNc1c2ccccc2nc2cccc([N+](=O)[O-])c12` [NITRACRINE]: the AC50 in experiment [1] was more than 30 µM; at Cannabinoid receptor 1, more than 30 µM; at Estrogen receptor [2], more than 30 µM; in [3] it was more than 30 µM; at Histamine H1 receptor, 14 µM; in experiment [4], 0.76 µM. The AC50 (in [5]; on Progesterone receptor) was more than 30 µM in each case.

With `O=[N+]([O-])c1ccc(O)c2ncccc12` [NITROXOLINE], the concentration at half-maximal activity (AC50) in [1] was more than 30 µM; at Cannabinoid receptor 1, more than 30 µM; on D(1A) dopamine receptor it was more than 30 µM; in experiment [3] it was more than 30 µM; on Histamine H1 receptor, 4.9 µM; in experiment [4], more than 30 µM. Also, the AC50 in [5] was 9.3 µM; on Mu-type opioid receptor [9], more than 30 µM; in [10] it was more than 30 µM; on Thromboxane A2 receptor it was more than 30 µM.

Consider `CC(N)C(O)c1ccccc1` (stereo not drawn) [PHENYLPROPANOLAMINE], for which the concentration at half-maximal activity (AC50) in experiment [6] was more than 10 µM; in experiment [1] it was more than 30 µM; on D(1A) dopamine receptor it was more than 10 µM; in experiment [3] it was more than 10 µM; on Histamine H1 receptor, more than 10 µM; in experiment [4] it was more than 10 µM. Further, the AC50 (in [5]; on Mu-type opioid receptor [7]) was more than 10 µM each time.

For the molecule `CCC(C)C(CC)C(N)=O` (stereo not drawn) [VALNOCTAMIDE], the AC50 (in experiment [1]; at Cannabinoid receptor 1; on D(1A) dopamine receptor; at Estrogen receptor [2]; in [3]; on Histamine H1 receptor) was more than 30 µM each time. Also, the AC50 (in experiment [5]; at Progesterone receptor) was more than 30 µM each time.

Regarding `Cc1cc(C(C)(C)C)cc(C)c1CC1=NCCN1` [XYLOMETAZOLINE], the AC50 in [6] was 1.27 µM; in experiment [1], more than 30 µM; on Cannabinoid receptor 1, more than 30 µM; at D(1A) dopamine receptor, more than 30 µM; on Estrogen receptor [2], more than 30 µM; in experiment [3], more than 30 µM. The AC50 on Histamine H1 receptor is more than 30 µM; in experiment [5] it was 20 µM; at Progesterone receptor, more than 30 µM.
